molecular target: T1, human Glucose-dependent Insulinotropic Polypeptide Receptor (hGIPR) (Homo sapiens, UniProt P48546); assay: Functional in vitro GIPR antagonist potency assay (intracellular cAMP, HTRF, hGIP stimulation at EC80); format: cell-based; conditions: not given
T1 sequence (P48546 22-466): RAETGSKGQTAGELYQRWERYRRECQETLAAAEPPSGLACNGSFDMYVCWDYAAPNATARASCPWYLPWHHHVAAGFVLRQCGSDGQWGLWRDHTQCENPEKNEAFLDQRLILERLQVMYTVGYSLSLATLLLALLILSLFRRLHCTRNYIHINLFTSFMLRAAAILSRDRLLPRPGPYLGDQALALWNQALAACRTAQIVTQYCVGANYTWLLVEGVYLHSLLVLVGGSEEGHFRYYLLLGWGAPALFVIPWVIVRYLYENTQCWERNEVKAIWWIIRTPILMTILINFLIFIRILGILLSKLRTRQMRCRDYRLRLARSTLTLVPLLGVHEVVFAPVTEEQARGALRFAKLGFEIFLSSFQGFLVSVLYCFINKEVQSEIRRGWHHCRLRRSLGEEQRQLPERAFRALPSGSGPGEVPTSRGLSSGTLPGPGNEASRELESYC
Protocol: Example AA. Functional In Vitro GIPR Antagonist Potency Assay
The functional in vitro antagonist potency for test compounds was determined by monitoring intracellular cyclic adenosine monophosphate (cAMP) levels in Chinese hamster ovary (CHO)—K1 cells stably expressing the human Glucose-dependent Insulinotropic Polypeptide Receptor (hGIPR). Following agonist activation, hGIPR associates with the G-protein complex causing the Gas subunit to exchange bound guanosine diphosphate (GDP) for guanosine triphosphate (GTP), followed by dissociation of the Gas-GTP complex. The activated Gas subunit can couple to downstream effectors to regulate the levels of second messengers or cAMP within the cell. Thereby, determination of intracellular cAMP levels allows for pharmacological characterization. Intracellular cAMP levels are quantitated using a homogenous assay utilizing the Homogeneous Time Resolved Fluorescence (HTRF) technology from Perkin Elmer. The method is a competitive immunoassay between native cAMP produced by the cells and cAMP labelled with the acceptor dye, d2. The two entities compete for binding to a monoclonal anti-cAMP antibody labeled with cryptate. The specific signal is inversely proportional to the concentration of cAMP in the cells.
Test compounds were solubilized to a concentration of 30 mM in 100% dimethyl sulfoxide (DMSO). An 11-point dilution series using 1 in 3.162-fold serial dilutions was created in 100% DMSO with a top concentration of 8 mM. The serially diluted compound was spotted with an Echo Acoustic liquid handler (Beckman Coulter) into a 384-well assay plate (Corning, Cat No. 3824) at 50 nL/well with duplicate points at each concentration, at a 200× final assay concentration (FAC). The final compound concentration range in the assay was 40 μM to […], with a final DMSO concentration of 0.5%.
Frozen assay-ready vials (at 1×10^7 cells/vial) of CHO-K1 cells stably expressing the Gs-coupled human GIPR receptor (Eurofins, DiscoverX, Cat No. 95-0146C2) were thawed, counted, and resuspended in assay buffer consisting of Hank's Balanced Salt Solution (HBSS, Lonza Cat No. 10-527) containing 20 mM (4-(2-hydroxyethyl)-1-piperazineethanesulfonic acid (HEPES, Lonza, Cat No. 17-737E), 0.1% bovine serum albumin (BSA, Sigma, Cat No. A7979), and 200 μM 3-isobutyl-1-methylxanthine (IBMX, Sigma, Cat No. 15879) at a density of 4×10^5 cells/mL. Cells were added to assay plate (5 μL/well of 4×10^5 cells/mL stock for 2,000 cells/well final) containing 50 nL of 200×FAC test compound, and incubated at 37° C. (95% O2: 5% CO2) for 2 hours, with micro-clime lids (Labcyte, Cat No. LLS-0310). Following the 2-hour cell and compound incubation, a stimulation mix comprised of hGIPR agonist human glucose-dependent insulinotropic polypeptide (hGIP, full length, Sigma Cat No. G2269) in assay buffer/0.1% DMSO was added to the assay plate (5 μL/well) at an estimated EC80 FAC (based on previous hGIP agonist curves) and incubated for another 30 minutes with micro-clime lids at 37° C. (95% O2: 5% CO2), after which intracellular cAMP levels were quantified as per Perkin Elmer's protocol (5 μL of d2 and then 5 μL cryptate, incubated for 1 hour at room temperature). Emission spectra of samples were measured on a Pherastar plate reader (BMG Labtech Inc) using a HTRF protocol (excitation, 320 nm; emission, 665 nm/620 nm).
(95% O2: 5% CO2), with a micro-clime lid. Following the 2-hour cell and DMSO incubation, a hGIP concentration response curve at 2×FAC (12-point curve using 1 in 3 serial dilutions, with triplicate points at each concentration, 100 nM final top concentration) in assay buffer/1% DMSO was added (5 μL/well) and incubated for a further 30 minutes with a micro-clime lid at 37° C. (95% O2: 5% CO2), after which intracellular cAMP levels were quantified and samples measured as described previously. Experiments passed quality control if the agonist concentration used for stimulation fell between the on-the-day EC50-EC90. […]

Compound | IC50 [nM]
Cc1cc(-n2ccc(NC(=O)[C@H]3CCCN3C(=O)Nc3ccc(OC(F)(F)F)cc3)n2)ccc1C(=O)O [Example 11, 2-Methyl-4-{3-[(1-{[4-(trifluoromethoxy)phenyl]carbamoyl}-D-prolyl)amino]-1H-pyrazol-1-yl}benzoic Acid] | 11
CC(C)c1ccc(NC(=O)N2CCC[C@@H]2C(=O)Nc2ccn(-c3ccc(C(=O)O)cn3)n2)cc1F [Example 3, 6-{3-[(1-{[3-Fluoro-4-(propan-2-yl)phenyl]carbamoyl}-D-prolyl)amino]-1H-pyrazol-1-yl}pyridine-3-carboxylic Acid] | 20

same assay, conditions: geometric mean; CHO-K1 cells stably expressing human GIPR, cAMP after hGIP stimulation at EC80

Compound | IC50 [nM]
Cc1cc(-n2ccc(NC(=O)[C@H]3CCCN3C(=O)Nc3ccc(C(C)C)c(C)c3)n2)ccc1C(N)=O [Example 15, (2R)—N^2-[1-(4-Carbamoyl-3-methylphenyl)-1H-pyrazol-3-yl]-N^1-[3-methyl-4-(propan-2-yl)phenyl]pyrrolidine-1,2-dicarboxamide] | 41
Cc1cc(-n2ccc(NC(=O)[C@H]3CCCN3C(=O)Nc3ccc(Cl)c(Cl)c3)n2)ccc1C(=O)O [Example 37, 4-[3-({1-[(3,4-dichlorophenyl)carbamoyl]-D-prolyl}amino)-1H-pyrazol-1-yl]-2-methylbenzoic acid] | 94
Cc1cc(-n2ccc(NC(=O)[C@H]3CCCN3C(=O)Nc3ccc(C(C)C)c(C)c3)n2)ccc1C(=O)O [Example 6, 2-Methyl-4-{3-[(1-{[3-methyl-4-(propan-2-yl)phenyl]carbamoyl}-D-prolyl)amino]-1H-pyrazol-1-yl}benzoic Acid] | 4.1
O=C(Nc1ccn(-c2cc(F)c(O)c(F)c2)n1)[C@H]1CCCN1C(=O)Nc1ccc(C(F)(F)F)cc1 [Example 54] | 12
CC(C)c1ccc(NC(=O)N2CCC[C@@H]2C(=O)Nc2ccn(-c3ccc(C(=O)O)cn3)n2)cc1 [Example 21, 6-{3-[(1-{[4-(propan-2-yl)phenyl]carbamoyl}-D-prolyl)amino]-1H-pyrazol-1-yl}pyridine-3-carboxylic acid] | 50
Cc1cc(-n2ccc(NC(=O)[C@H]3CCCN3C(=O)CCc3ccc(C(F)(F)F)cc3)n2)ccc1C(=O)O [Example 18, 2-Methyl-4-{3-[(1-{3-[4-(trifluoromethyl)phenyl]propanoyl}-D-prolyl)amino]-1H-pyrazol-1-yl}benzoic Acid] | 250
Cc1cc(-n2ccc(NC(=O)[C@H]3CCCN3C(=O)Nc3ccc(Cl)c(C(F)(F)F)c3)n2)ccc1C(=O)O [Example 46, 4-{3-[(1-{[4-chloro-3-(trifluoromethyl)phenyl]carbamoyl}-D-prolyl)amino]-1H-pyrazol-1-yl}-2-methylbenzoic acid] | 75
CC(C)c1ccc(NC(=O)N2CCC[C@@H]2C(=O)Nc2ccn(-c3ccc(CC(=O)O)cc3)n2)cc1 [Example 2, (4-{3-[(1-{[4-(Propan-2-yl)phenyl]carbamoyl}-D-prolyl)amino]-1H-pyrazol-1-yl}phenyl)acetic Acid] | 25
Cc1cc(NC(=O)N2CCC[C@@H]2C(=O)Nc2ccn(-c3cc(F)c(O)c(F)c3)n2)ccc1C(C)C [Example 55] | 3.8
Cc1cc(-n2ccc(NC(=O)[C@H]3CCCN3C(=O)Nc3ccc(OC(F)(F)F)cc3)n2)ccc1C(N)=O [Example 41] | 98
Cc1cc(NC(=O)N2CCC[C@@H]2C(=O)Nc2ccn(-c3ccc(C(=O)O)cc3)n2)ccc1C(C)C [Example 26, 4-{3-[(1-{[3-methyl-4-(propan-2-yl)phenyl]carbamoyl}-D-prolyl)amino]-1H-pyrazol-1-yl}benzoic acid] | 64
Cc1cc(-n2ccc(NC(=O)[C@H]3CCCN3C(=O)Nc3ccc(C(F)(F)F)cc3)n2)ccc1C(N)=O [Example 49] | 240
C=C(C)c1ccc(NC(=O)N2CCC[C@@H]2C(=O)Nc2ccn(-c3ccc(C(=O)O)c(C)c3)n2)cc1C [Example 58, 2-methyl-4-{3-[(1-{[3-methyl-4-(prop-1-en-2-yl)phenyl]carbamoyl}-D-prolyl)amino]-1H-pyrazol-1-yl}benzoic acid] | 8.8
CC(C)c1ccc(NC(=O)N2CCC[C@@H]2C(=O)Nc2ccn(-c3cccc(C(=O)O)c3)n2)cc1 [Example 20, 3-{3-[(1-{[4-(propan-2-yl)phenyl]carbamoyl}-D-prolyl)amino]-1H-pyrazol-1-yl}benzoic acid] | 240
Cc1cc(-n2ccc(NC(=O)[C@H]3CCCN3C(=O)COc3ccc(C(F)(F)F)cc3)n2)ccc1C(N)=O [Example 60, N-[1-(4-carbamoyl-3-methylphenyl)-1H-pyrazol-3-yl]-1-{[4-(trifluoromethyl)phenoxy]acetyl}-D-prolinamide] | 210
Cc1cc(-n2ccc(NC(=O)[C@H]3CCCN3C(=O)COc3ccc(C(F)(F)F)cc3)n2)ccc1C(=O)O [Example 17, 2-Methyl-4-{3-[(1-{[4-(trifluoromethyl)phenoxy]acetyl}-D-prolyl)amino]-1H-pyrazol-1-yl}benzoic Acid] | 36
CC(C)c1ccc(NC(=O)N2CCC[C@@H]2C(=O)Nc2ccn(-c3ccc(C(N)=O)cc3)n2)cc1F [Example 57] | 120
Cc1cc(NC(=O)N2CCC[C@@H]2C(=O)Nc2ccn(-c3ccc(C(=O)O)cc3)n2)ncc1C(C)C [Example 30, 4-{3-[(1-{[4-methyl-5-(propan-2-yl)pyridin-2-yl]carbamoyl}-D-prolyl)amino]-1H-pyrazol-1-yl}benzoic acid] | 250
Cc1cc(-n2ccc(NC(=O)[C@H]3CCCN3C(=O)NCc3ccc(OC(F)(F)F)cc3)n2)ccc1C(=O)O [Example 8, 2-Methyl-4-(3-{[1-({[4-(trifluoromethoxy)phenyl]methyl}carbamoyl)-D-prolyl]amino}-1H-pyrazol-1-yl)benzoic Acid] | 61
Cc1cc(-n2ccc(NC(=O)[C@H]3CCCN3C(=O)COc3ccc(C(F)(F)F)c(F)c3)n2)ccc1C(=O)O [Example 67, 4-{3-[(1-{[3-fluoro-4-(trifluoromethyl)phenoxy]acetyl}-D-prolyl)amino]-1H-pyrazol-1-yl}-2-methylbenzoic acid] | 61
Cc1cc(-n2ccc(NC(=O)[C@H]3CCCN3C(=O)Nc3ccc(C4CC4)c(C(F)(F)F)c3)n2)ccc1C(=O)O [Example 53, 4-{3-[(1-{[4-cyclopropyl-3-(trifluoromethyl)phenyl]carbamoyl}-D-prolyl)amino]-1H-pyrazol-1-yl}-2-methylbenzoic acid] | 13
Cc1cc(-n2ccc(NC(=O)[C@H]3CCCN3C(=O)CNc3ccc(C(F)(F)F)cc3)n2)ccc1C(N)=O [Example 61, N-[4-(trifluoromethyl)phenyl]glycyl-N-[1-(4-carbamoyl-3-methylphenyl)-1H-pyrazol-3-yl]-D-prolinamide] | 450

Source: patent US20250326741A1, “GLUCOSE-DEPENDENT INSULINOTROPIC POLYPEPTIDE RECEPTOR ANTAGONISTS AND USES THEREOF” (Pfizer Inc., priority 2024, published 2025)
